Here are results for two molecules from patent EP0606804B1, “Marker for neurotensin receptor” (MARTINEX R & D INC., priority 1992, dated 2001).

Series [1] can be described thus: Toxicity (statement, no method given).
Another series in a line: Stability / shelf life. Type of series: physicochemical. The following applies: protected from light and maintained at 4°C.
The next series is described as follows: Solubility. Type of series: physicochemical. To be noted: distilled water or aqueous buffer.
The target in series [2] is T1, neurotensin receptor on purified brain membranes from adult male mice (mouse, UniProt O88319 1-424).
T1 construct: whole, on cells; This is the native receptor in a brain membrane preparation, not on intact cells; also called mouse brain membranes
T1 sequence (O88319 whole entry): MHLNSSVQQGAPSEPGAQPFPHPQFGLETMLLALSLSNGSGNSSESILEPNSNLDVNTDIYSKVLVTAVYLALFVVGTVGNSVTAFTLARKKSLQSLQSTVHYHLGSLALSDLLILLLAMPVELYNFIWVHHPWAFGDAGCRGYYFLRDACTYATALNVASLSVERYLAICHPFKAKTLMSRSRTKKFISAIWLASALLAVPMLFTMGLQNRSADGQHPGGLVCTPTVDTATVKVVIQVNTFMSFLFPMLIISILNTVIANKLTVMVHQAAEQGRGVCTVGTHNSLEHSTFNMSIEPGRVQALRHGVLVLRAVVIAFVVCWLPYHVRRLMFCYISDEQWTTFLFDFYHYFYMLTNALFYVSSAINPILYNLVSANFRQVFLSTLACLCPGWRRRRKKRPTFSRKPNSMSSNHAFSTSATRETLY
Description: competition with 0.1 nM 125I-Tyr3-neurotensin on mouse brain membranes, filtration, 20 min at 22 C.

Where no end group is shown, it is not given here. FTC = fluorescein thiocarbamyl

Turning to `CC[C@H](C)[C@H](NC(=O)[C@H](Cc1ccc(O)cc1)NC(=O)[C@@H]1CCCN1C(=O)[C@H](CCCNC(=N)N)NC(=O)[C@H](CCCNC(=N)N)NC(=O)[C@@H]1CCCN1C(=O)[C@H](CCCCN)NC(=O)[C@H](CC(N)=O)NC(=O)[C@H](CCC(=O)O)NC(=O)[C@H](Cc1ccc(O)cc1)NC(=O)[C@H](CC(C)C)NC(=O)[C@H](CCC(=O)O)NC(=S)Nc1ccc2c(c1)C(=O)OC21c2ccc(O)cc2Oc2cc(O)ccc21)C(=O)N[C@@H](CC(C)C)C(=O)O` [N-FTC-[Glu^1]NT, N-fluoresceyl thiocarbamyl-[Glu^1] neurotensin], the toxicity in series [1] is recorded as 100% non-toxic. In addition, the stability result in the series “Stability / shelf life” is “stable”. Further, the solubility result in “Solubility” is given as “freely soluble”.

B1: N-fluoresceyl thiocarbamyl-[Glu1] neurotensin (peptide)
peptide: {FTC}-ELYENKPRRPYIL
notes: Synthetic 13-residue neurotensin analogue with Glu in place of pGlu at position 1, carrying one fluorescein per peptide; Molecular weight 2080; also called N-FTC-[Glu1]NT; FTC-[Glu1]NT
For B1, the IC50 in series [2] worked out at 0.55 nM.

What is called IC50 is the concentration at which inhibition is half-maximal.
